# Measured values as given in US20070178537A1, “Assays for detection of bioactive compounds that interact with heat shock protein 90” (Sloan-Kettering Institute for Cancer Research, priority 2003, published 2007).
# “And” between values parts separate entries of the source, which are not always exact repeats. Equal entries are not always repeated. Where two headings read alike, the source gives them in different places.
# What was measured:
# Her2 in SKBr3 cells = assay: Her2-blot (whole-cell immunoassay of Her2 degradation); format: cell-based, human
# Experimental: The human cancer cell lines SKBr3 and A431 were obtained from the American Type Culture Collection (Manassas, Va.) and maintained in 1:1 mixture of DME:F12 supplemented with 2 mM glutamine, 50 units/mL penicillin, 50 units/mL streptomycin and 5% heat inactivated fetal bovine serum (FBS) (Gemini Bioproducts) and incubated at 37° C. in 5% CO2. Stock culture was grown in T-175 flasks containing 30 mL of DME (HG, F-12, non-essential amino acids, and penicillin and streptomycin), with glutamine, and 10% FBS. Cells were dissociated with 0.05% trypsin and 0.02% EDTA in phosphate buffer saline (PBS) without calcium and magnesium. Experimental cultures of SKBr3 were plated in black, clear-bottom microtiter plates (Corning # 3603) (3,000 cells per well) in growth medium ([…]), and allowed to attach for at least 48 h at 37° C. and 5% CO2. Some wells were left without cells to serve as the blank. Growth medium (100 μL) with drug or vehicle (DMSO) was carefully added to the wells and the microtiter plates were placed at 37° C. and 5% CO2. […] Following incubation (6 h or 24 h), wells were washed twice with ice-cold tris buffer saline (TBS) containing 0.1% Tween20 (TBST) (200 μL). A house vacuum source attached to an 8-channel aspirator was used to remove the liquid from the microplates. Further, methanol (100 μL at −20° C.) was added to each well and the plate was left at 4° C. for 10 min. Methanol was removed by washing with TBST (2×200 μL). The plate was further incubated at RT for 1 h with SuperBlock® (Pierce # 37535) (200 μL) and overnight at 4° C. with the anti-Her-2 antibody (Santa Cruz Biotechnology # SC-284) ([…], 1:200 in SuperBlock®). Each well was washed with TBST (2×200 μL) and incubated at RT for 2 h with an anti-rabbit HRP-linked antibody (Sigma # A0545) (100 μL, 1:1000 in SuperBlock®). […] The plate was read 5 min later in an Analyst AD plate reader (Molecular Devices). […] Readings from wells containing only control IgG and the corresponding HRP-linked secondary antibody were set as background and deducted from all measured values. […]
# Hsp90 beta = Hsp90 beta (Homo sapiens, UniProt P08238); assay: Fluorescence polarization competitive displacement of GM-BODIPY, Hsp90 beta; format: binding; details: 30 nM Hsp90 beta, 5 nM GM BODIPY, 7 h
# Chain of Hsp90 beta (P08238 whole entry): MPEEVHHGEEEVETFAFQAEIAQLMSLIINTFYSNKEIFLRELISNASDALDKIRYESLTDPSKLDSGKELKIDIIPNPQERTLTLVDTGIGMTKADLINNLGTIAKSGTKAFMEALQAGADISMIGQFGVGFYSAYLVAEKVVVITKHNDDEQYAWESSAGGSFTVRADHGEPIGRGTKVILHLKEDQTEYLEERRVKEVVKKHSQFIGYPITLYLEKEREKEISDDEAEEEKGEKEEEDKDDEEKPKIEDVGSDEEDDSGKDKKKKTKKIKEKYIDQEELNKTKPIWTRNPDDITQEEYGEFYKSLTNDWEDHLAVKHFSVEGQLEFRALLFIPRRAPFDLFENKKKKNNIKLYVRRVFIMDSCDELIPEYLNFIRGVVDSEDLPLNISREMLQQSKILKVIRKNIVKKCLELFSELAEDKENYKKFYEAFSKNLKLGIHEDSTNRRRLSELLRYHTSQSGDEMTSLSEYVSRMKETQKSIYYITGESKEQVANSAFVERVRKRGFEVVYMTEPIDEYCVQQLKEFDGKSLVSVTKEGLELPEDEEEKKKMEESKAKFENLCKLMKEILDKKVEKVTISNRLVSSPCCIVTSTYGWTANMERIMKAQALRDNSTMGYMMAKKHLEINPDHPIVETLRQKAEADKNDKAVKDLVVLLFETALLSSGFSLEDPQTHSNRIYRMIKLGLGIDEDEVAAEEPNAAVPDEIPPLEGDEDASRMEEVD
# Text: Specific ligand binding was plotted against the log10 inhibitor concentration and EC50 values calculated using a non linear least square curve fitting program in Prism 4.0.
# Hsp90 alpha = molecular target: T1, Hsp90 alpha (Homo sapiens, UniProt P07900); assay: Fluorescence polarization competitive displacement of GM-BODIPY from Hsp90; format: binding; details: ratio of EC50 values
# T1 construct: purchased Stressgen SPP776
# Text: The method comprises the steps of: • (a) combining the candidate molecule with Hsp90 in the presence of a fluorescently-labeled molecule known to bind to Hsp90; • (b) exciting the fluorescent label using polarized light to produce a fluorescent emission; • (c) observing the degree of polarization of the fluorescent emission; and • (d) comparing the degree of polarization determined in step (c) to a standard value determined for the fluorescently labeled molecule when it is bound to Hsp90. When the fluorescently-labeled molecule is bound to the Hsp90, the emission is substantially polarized. On the other hand, when the fluorescently-labeled molecule has been wholly or partially displaced by candidate molecule, the extent to which the emission is polarized decreases as a result of the rotational freedom of the unbound fluorescently labeled species.
# Maximum concentration of used DMSO was 0.25% (v/v). The plate was left on a shaker at 4° C. for 5 h and the FP values in mP were recorded.
# Ad-But was again used as a control.
# A mixture of 30 nM Hsp90 alpha, 30 nM Hsp90 beta or 200 nM Grp94-His, respectively with 5 nM GM BODIPY was added and the plate incubated at 4EC for 7 h. Specific ligand binding was plotted against the log10 inhibitor concentration and EC50 values calculated using a non linear least square curve fitting program in Prism 4.0.
# [1] = system: tumor hsp90 versus normal tissue Hsp90; assay: Fluorescence polarization assay with tumor cell and normal tissue lysates; format: binding; details: FIG. 11 and FIG. 22C
# Experimental: For use in the assay of the invention, cell lysates are made using the following protocol • collect cells • adherent cells: trypsinize (or scrape), harvest cells in 15 ml conical tubes and centrifuge at 1,600 RPM for 5 minutes at 2 to 8 C • (use confluent T-175 flask to obtain 0.5 ml of lysate) • floating cells: pellet cells by centrifugation 1600 rpm for 5 minutes at 2 to 8 C • wash 2× with 5 ml of PBS buffer • resuspend the pellet in 1 ml of PBS buffer and transfer cells to an eppendorf tube • centrifuge, aspirate supernatant, and freeze the pellet O/N at −70° C. • resuspend in lysis buffer B (Felts buffer) (1×10^6 cells per 100 l of buffer B) • incubate on the rotor for 2 hours at 2 to 8° C. • centrifuge the samples at 13,200 RPM for 30 min at 2 to 8° C. • transfer the supernatant to a fresh tube • quantitate protein concentration with the Pierce BCA assay • add 0.5 uL of 1M DTT/mL lysate • store samples at −70 C; before conducting an experiment thaw samples on ice and keep samples on ice throughout the course of experiment.
# Cellular lysates were prepared in this manner from normal brain tissue, CML cell line K562 and breast cancer cell line SKBr3. For constructing a saturation curve, 5 nM GM BODIPY was added to the lysate, and the fluorescence polarization assay of the invention was performed. […]
# The assay is stable and results in reproducible data (6-24 h readings presented). […]
# [2] = Homo sapiens, SK-BR-3, Her2-blot, read-out: IC50 for Her2 degradation
smiles,measurement,setting,value
"COC1=C2C[C@@H](C)C[C@H](OC)[C@H](O)[C@@H](C)/C=C(\C)[C@H](OC(N)=O)[C@@H](OC)/C=C\C=C(/C)C(=O)NC(=CC1=O)C2=O [GM, geldanamycin]",IC50,Her2 in SKBr3 cells; [2],0.017 µM
CCNC(=O)[C@H]1O[C@@H](n2cnc3c(N)ncnc32)[C@H](O)[C@@H]1O [NECA],Inhibition of cytosolic Hsp90 b (FIG. 13A),Hsp90 beta,does not inhibit
CCCCn1c(Cc2cc(OC)c(OC)c(OC)c2)nc2c(N)ncnc21 [PU3],times weaker Hsp90 inhibitor than 17AAG,Hsp90 alpha,30
C#CCCCn1c(Cc2cc(OC)c(OC)c(OC)c2Cl)nc2c(N)nc(F)nc21 [PU24FCl],IC50,"Her2 in SKBr3 cells; several plates at different time periods, read-out: IC50s in separate readings of the Her2-blot",4 µM and 4.18 µM and 4.54 µM
same,Binding affinity for tumor versus normal tissue Hsp90,[1],difference in binding affinity
"C[C@@H]1C[C@H]2O[C@@H]2/C=C\C=C\C(=O)Cc2c(Cl)c(O)cc(O)c2C(=O)O1 [RD, radicicol]",IC50,Her2 in SKBr3 cells; [2],0.028 µM
